# Read-outs that look alike come from different tables or passages of the source.
# What was measured:
# Assay type in all cases: cell-based
# [1] = test system: S. aureus ATCC BAA-1707 (MRSA); experiment: MIC (broth microdilution or agar dilution, CLSI); conditions: Staphylococcus aureus; S. aureus HAV#016, ATCC BAA-1707; MRSA; read-out: MIC
# Method: (§1) Minimum inhibitory concentrations (MICs) were determined by broth microdilution method or agar dilution method following the Clinical and Laboratory Standards Institute guidelines. Standard bacterial strains were obtained from American Type Culture Collection (ATCC). Other bacterial strains were obtained from hospitals and commercial sources, so noted in Table 11. […] Specialized procedures were employed for streptococcal and anaerobic strains. All other bacterial strains were sub-cultured on blood agar plates (tryptic soy agar with 5% sheep blood, Hardy Diagnostics) and incubated overnight at 35° C. […] Suspensions were further diluted to obtain a final inoculum of 5×10^5 CFU/mL for broth microdilution experiments.
# E. coli ATCC 25922 = experiment: MIC (broth microdilution or agar dilution, CLSI); conditions: Escherichia coli, ATCC25922, read-out: MIC
# Method: as §1
# E. faecalis ATCC 29212 = experiment: MIC (broth microdilution or agar dilution, CLSI); conditions: Enterococcus faecalis, read-out: MIC
# Method: as §1
# S. aureus ATCC 29213 = experiment: MIC (broth microdilution or agar dilution, CLSI); conditions: Staphylococcus aureus, read-out: MIC
# Method: as §1
# E. coli LptD = experiment: MIC (broth microdilution or agar dilution, CLSI); conditions: Escherichia coli, read-out: MIC
# Method: as §1
# S. aureus BAA 977 iErmA = experiment: microbe, parasite or virus in culture; conditions: Staphylococcus aureus, BAA-977 / MRSA
# Method: as §1
# E. coli ΔTolC = experiment: microbe, parasite or virus in culture; conditions: Escherichia coli
# Method: as §1
# [2] = test system: broad panel of different clinical isolates; experiment: microbe, parasite or virus in culture
# Method: as §1
# A. baumannii ATCC 19606 = experiment: MIC (broth microdilution or agar dilution, CLSI); conditions: Acinetobacter baumannii, ATCC19606; A. baumannii ATCC 19606; read-out: MIC
# Method: as §1
# S. pneumoniae ATCC 49619 = experiment: MIC (broth microdilution or agar dilution, CLSI); conditions: Streptococcus pneumoniae, read-out: MIC
# Method: as §1
# K. oxytoca Clinical = experiment: MIC (broth microdilution or agar dilution, CLSI); conditions: Klebsiella oxytoca, read-out: MIC
# Method: as §1
# S. pyogenes ATCC 19615 = experiment: MIC (broth microdilution or agar dilution, CLSI); conditions: Streptococcus pyogenes, read-out: MIC
# Method: as §1
# E. faecium Clinical VRE = experiment: MIC (broth microdilution or agar dilution, CLSI); conditions: Enterococcus faecium; E. faecium Clinical VRE; read-out: MIC
# Method: (§2) Minimum inhibitory concentrations (MICs) were determined by broth microdilution method or agar dilution method following the Clinical and Laboratory Standards Institute guidelines. Standard bacterial strains were obtained from American Type Culture Collection (ATCC). Other bacterial strains were obtained from hospitals and commercial sources, so noted in Table 11. Before the start of the MIC experiment, standard and test compound stock solutions were prepared in dimethyl sulfoxide (DMSO, Aldrich D2650) at a stock concentration of 5,120 μg/mL. The compound concentration range typically employed for each experiment was 128-0.06 μg/mL (2.5% final DMSO concentration). Clindamycin was used as a comparator in all experiments and each experiment was performed in triplicate. Specialized procedures were employed for streptococcal and anaerobic strains. All other bacterial strains were sub-cultured on blood agar plates (tryptic soy agar with 5% sheep blood, Hardy Diagnostics) and incubated overnight at 35° C. Organisms were suspended in cation-adjusted Mueller-Hinton broth (CaMHB, BD 212322) and optical density was adjusted to 0.5 McFarland standard. Suspensions were further diluted to obtain a final inoculum of 5×10^5 CFU/mL for broth microdilution experiments.
# P. aeruginosa ATCC 27853 = experiment: MIC (broth microdilution or agar dilution, CLSI); conditions: Pseudomonas aeruginosa, ATCC27853; P. aeruginosa ATCC 27853; read-out: MIC
# Method: as §2
# S. aureus cErmA = experiment: MIC (broth microdilution or agar dilution, CLSI); conditions: Staphylococcus aureus; S. aureus cErmA; read-out: MIC
# Method: as §2
# S. aureus MMX 3035 cErmA = experiment: MIC (broth microdilution or agar dilution, CLSI); conditions: Staphylococcus aureus, MMX3035CERMA; S. aureus HAV#031, MMX 3035; cErmA; read-out: MIC
# Method: as §1
# [3] = ATCC29212, E. faecalis HAV#005, ATCC 29212
# [4] = ATCC29213, S. aureus HAV#001, ATCC 29213, MP-549
# [5] = ATCC49619, S. pneumoniae ATCC 49619
# [6] = ATCC29212, E. faecalis ATCC 29212
# [7] = ATCC29213, S. aureus ATCC 29213
# [8] = ATCC19615, S. pyogenes ATCC 19615
# [9] = ATCC49619, S. pneumoniae HAV#003, ATCC 49619
# [10] = ATCC19615, S. pyogenes HAV#004, ATCC 19615
# [11] = Enterococcus faecalis, VRE, E. faecalis HAV#251, Clinical VRE
# [12] = Klebsiella pneumoniae, K. pneumoniae HAV#041, Clinical, KPC
SMILES,"MIC (E. coli ATCC 25922; E. coli HAV#006, ATCC 25922)",MIC (E. faecalis ATCC 29212; [3]),MIC (S. aureus ATCC 29213; [4]),"MIC (E. coli LptD; E. coli HAV#040, LptD)","MIC (E. coli ΔTolC; E. coli HAV#038, ΔTolC)",MIC (S. pneumoniae ATCC 49619; [5]),MIC (E. coli ATCC 25922; E. coli ATCC 25922),MIC (K. oxytoca Clinical; K. oxytoca Clinical),MIC (E. faecalis ATCC 29212; [6]),MIC (S. aureus ATCC 29213; [7]),MIC (S. pyogenes ATCC 19615; [8]),MIC (E. coli LptD; E. coli LptD),MIC (E. faecium Clinical VRE),MIC (S. aureus cErmA),MIC (E. coli ΔTolC; E. coli ΔTolC),MIC (S. aureus MMX 3035 cErmA),MIC (S. pneumoniae ATCC 49619; [9]),"MIC (K. oxytoca Clinical; K. oxytoca HAV#450, Clinical)",MIC (S. pyogenes ATCC 19615; [10]),"MIC [2, 11]",other results
CN(C)c1ccc(O)c2c1C[C@H]1C[C@H]3[C@H](N(C)C)C(O)=C(C(N)=O)C(=O)[C@@]3(O)C(O)=C1C2=O [Minocycline],0.5 µg/mL,4 µg/mL,0.25 µg/mL,0.25 µg/mL,≤ 0.0125 µg/mL,–,–,–,–,–,–,–,–,–,–,–,–,–,–,–,"MIC [1]: 0.25 µg/mL; MIC (S. aureus BAA 977 iErmA): 0.25 µg/mL; MIC ([2]; Enterococcus faecium, VRE, E. faecium HAV#326, Clinical): 0.125 µg/mL"
COCCC[C@@H]1CCO[C@@H]2[C@H](CN[C@@H]2C(=O)N[C@H]([C@H](C)Cl)[C@H]2OC(SC)[C@H](O)[C@H](O)C2O)C1 (stereo partly drawn) [FSA-10-10-022],–,–,–,–,–,0.25 µg/mL,32 µg/mL,32 µg/mL,2 µg/mL,0.125 µg/mL,0.25 µg/mL,4 µg/mL,8 µg/mL,16 µg/mL,0.5 µg/mL,–,–,–,–,–,MIC (A. baumannii ATCC 19606): > 128 µg/mL; MIC (P. aeruginosa ATCC 27853): > 128 µg/mL
O=C(N[C@H](CO)[C@H](O)c1ccc([N+](=O)[O-])cc1)C(Cl)Cl [Chloramphenicol],8 µg/mL,8 µg/mL,8 µg/mL,4 µg/mL,8 µg/mL,–,–,–,–,–,–,–,–,–,–,16 µg/mL,4 µg/mL,8 µg/mL,4 µg/mL,4 µg/mL,"MIC ([2]; Enterococcus faecium, VRE, E. faecium HAV#318, VanA): 8 µg/mL; MIC [2, 12]: > 128 µg/mL; MIC ([2]; Staphylococcus aureus, S. aureus HAV#216, Clinical, cfr): > 128 µg/mL; MIC ([2]; Staphylococcus aureus, S. aureus HAV#217, cfr): > 128 µg/mL; MIC ([2]; Staphylococcus epidermidis, S. epidermidis HAV# 275 Clinical, cfr): > 128 µg/mL; MIC ([2]; Staphylococcus epidermidis, S. epidermidis HAV# 276, cfr): > 128 µg/mL"
CS(=O)(=O)c1ccc([C@@H](O)[C@@H](CO)NC(=O)C(Cl)Cl)cc1 [Thiamphenicol],64 µg/mL,16 µg/mL,32 µg/mL,32 µg/mL,16 µg/mL,–,–,–,–,–,–,–,–,–,–,32 µg/mL,2 µg/mL,64 µg/mL,4 µg/mL,8 µg/mL,"MIC [2, 12]: > 64 µg/mL"
"CS[C@H]1O[C@H]([C@H](NC(=O)[C@H]2NC[C@@H]3C[C@H](CC(C)C)CCO[C@H]32)[C@H](C)Sc2ccc(CN3CCNCC3)cc2)[C@H](O)[C@H](O)[C@H]1O [FSA-09-05-076, (4S,5aS,8S,8aR)-4-Isobutyl-N-((1S,2S)-2-((4-(piperazin-1-ylmethyl)phenyl)thio)-1-((2R,3R,4S,5R,6R)-3,4,5-trihydroxy-6-(methylthio)tetrahydro-2H-pyran-2-yl)propyl)octahydro-2H-oxepino[2,3-c]pyrrole-8-carboxamide]",–,–,–,–,–,1 µg/mL,128 µg/mL,16 µg/mL,4 µg/mL,8 µg/mL,0.25 µg/mL,16 µg/mL,16 µg/mL,128 µg/mL,8 µg/mL,–,–,–,–,–,–

# From patent publication US20230203081A1, “LINCOSAMIDE ANTIBIOTICS AND USES THEREOF” (President and Fellows of Harvard College, priority 2020, published 2023)
